Measured values as given in ChEMBL document CHEMBL3352063, “Transition state mimetics of the Plasmodium export element are potent inhibitors of Plasmepsin V from P. falciparum and P. vivax” (J Med Chem, 2014).
Numbered stars: 1 amine (or outer) side, 2 acyl side, 3 side chain; on linkers, the order of the positions; unused ones are H or OH. Square brackets hold non-standard residues; d marks the D form. Peptide text beside a SMILES is read from it. * marks the point of attachment. Sta = CC(C)C[C@H](N)[C@@H](O)CC(=O)O; Hydrocinnamoyl = O=C(CCc1ccccc1)*; NHPhenethyl = c1ccc(CCN*)cc1; Isobutyryl = CC(C)C(=O)*; Piperidide = C1CCN(*)CC1; Pyrrolidide = C1CCN(*)C1; Cbz = O=C(OCc1ccccc1)*; PhAc = O=C(Cc1ccccc1)*; CO = O=C([*:1])[*:2]; NHBn = c1ccc(CN*)cc1; Alloc = C=CCOC(=O)*; Bz = O=C(c1ccccc1)*; NHPh = c1ccc(N*)cc1; GABA = NCCCC(=O)O; Ms = CS(=O)(=O)*; NHiPr = CC(C)N*; NHPr = CCCN*

Legend:
Beta-secretase 1 = Beta-secretase 1 (Homo sapiens, UniProt P56817); experiment: Inhibition of human BACE1 assessed as cleavage of TRF substrate
Sequence of Beta-secretase 1 (P56817 whole entry): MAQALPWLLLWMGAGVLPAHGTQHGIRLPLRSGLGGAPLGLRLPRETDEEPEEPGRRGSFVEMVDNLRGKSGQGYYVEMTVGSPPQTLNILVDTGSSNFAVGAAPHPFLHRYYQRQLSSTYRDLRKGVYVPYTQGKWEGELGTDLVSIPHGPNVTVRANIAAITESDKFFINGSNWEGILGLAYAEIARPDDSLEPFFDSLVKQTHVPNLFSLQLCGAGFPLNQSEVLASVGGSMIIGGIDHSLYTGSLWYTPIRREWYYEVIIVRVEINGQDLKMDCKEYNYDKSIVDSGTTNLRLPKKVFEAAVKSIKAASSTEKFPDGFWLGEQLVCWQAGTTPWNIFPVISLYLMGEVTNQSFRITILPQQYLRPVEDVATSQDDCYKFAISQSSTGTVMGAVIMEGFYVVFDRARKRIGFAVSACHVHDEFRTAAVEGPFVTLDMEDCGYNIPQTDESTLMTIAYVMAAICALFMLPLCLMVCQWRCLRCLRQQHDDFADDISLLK

Cathepsin D = Cathepsin D (Homo sapiens, UniProt P07339); experiment: Inhibition of human cathepsin D assessed as cleavage of wtKAHRP fluorogenic substrate
Sequence of Cathepsin D (P07339 65-162 limits assumed): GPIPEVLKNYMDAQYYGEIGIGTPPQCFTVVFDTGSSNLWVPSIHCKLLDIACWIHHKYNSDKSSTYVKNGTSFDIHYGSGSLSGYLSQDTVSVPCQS
Sequence of Cathepsin D (P07339 169-412 limits assumed): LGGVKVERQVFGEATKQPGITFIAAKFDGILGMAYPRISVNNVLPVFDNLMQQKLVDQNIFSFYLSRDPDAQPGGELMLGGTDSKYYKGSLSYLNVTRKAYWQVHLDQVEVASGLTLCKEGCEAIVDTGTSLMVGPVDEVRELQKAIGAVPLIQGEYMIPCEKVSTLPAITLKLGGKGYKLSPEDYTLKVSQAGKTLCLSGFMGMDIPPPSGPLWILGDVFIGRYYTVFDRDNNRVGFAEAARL

Plasmepsin V = Plasmepsin V (Plasmodium falciparum (isolate 3D7), UniProt Q8I6Z5); experiment: Inhibition of Plasmodium falciparum plasmepsin V assessed as cleavage of wtKAHRP fluorogenic substrate
Sequence of Plasmepsin V (Q8I6Z5 whole entry): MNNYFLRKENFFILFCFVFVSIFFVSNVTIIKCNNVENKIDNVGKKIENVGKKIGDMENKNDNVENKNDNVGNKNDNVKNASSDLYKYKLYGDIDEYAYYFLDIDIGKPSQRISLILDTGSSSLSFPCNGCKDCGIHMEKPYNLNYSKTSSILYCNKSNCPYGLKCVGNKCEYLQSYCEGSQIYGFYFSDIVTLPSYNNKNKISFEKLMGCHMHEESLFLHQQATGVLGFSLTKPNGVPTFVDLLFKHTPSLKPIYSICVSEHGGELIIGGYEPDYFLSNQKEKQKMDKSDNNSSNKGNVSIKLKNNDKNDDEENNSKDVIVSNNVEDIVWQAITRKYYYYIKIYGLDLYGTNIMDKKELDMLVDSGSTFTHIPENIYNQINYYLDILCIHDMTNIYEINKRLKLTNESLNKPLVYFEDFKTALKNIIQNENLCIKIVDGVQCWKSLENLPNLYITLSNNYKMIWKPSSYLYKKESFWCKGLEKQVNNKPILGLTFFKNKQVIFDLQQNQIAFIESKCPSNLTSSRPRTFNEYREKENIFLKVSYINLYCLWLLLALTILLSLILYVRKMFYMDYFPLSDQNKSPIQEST

[1] = target: Plasmepsin V (Plasmodium falciparum (isolate 3D7)) (UniProt Q8I6Z5); experiment: Inhibition of Plasmodium falciparum plasmepsin V assessed as cleavage of wtKAHRP fluorogenic substrate at 1 uM
Sequence of Plasmepsin V (Plasmodium falciparum (isolate 3D7)) (Q8I6Z5 whole entry, looked up): as the sequence (Q8I6Z5 whole entry) above

Row | IC50 (Beta-secretase 1) [µM] | IC50 (Cathepsin D) [µM] | IC50 (Plasmepsin V) [µM] | inhibition [1] [%] | Compound
1 | – | – | – | 11 | CC(C)C[C@H](NC(=O)[C@H](C)NC(=O)[C@H](CCCNC(=N)N)NC(=O)OCc1ccccc1)[C@@H](O)CC(=O)N(C)CCc1ccccc1
2 | > 100 | > 100 | 0.348 | – | CC(C)C[C@H](NC(=O)[C@H](C)NC(=O)[C@H](CCCNC(=N)N)NC(=O)OCc1ccccc1)[C@@H](O)CC(=O)NCCc1ccc(Cl)cc1
3 | – | – | – | 13 | CC(C)C[C@H](NC(=O)[C@H](C)NC(=O)[C@H](CCCNC(=N)N)NC(=O)OCc1ccccc1)[C@@H](O)CC(=O)N1CCCC1 (Cbz-Arg-Ala-[Sta]-Pyrrolidide)
4 | > 100 | > 100 | 0.569 | 56 | CC(C)C[C@H](NC(=O)[C@H](C)NC(=O)[C@H](CCCNC(=N)N)NC(=O)OCc1ccccc1)[C@@H](O)CC(=O)NC(C)c1ccccc1 (mixture of isomers)
5 | – | – | – | 52 | CC(C)C[C@H](NC(=O)[C@H](C)NC(=O)[C@H](CCCNC(=N)N)NC(=O)OCc1ccccc1)[C@@H](O)CC(=O)NC1CCCC1
6 | – | – | – | 65 | CC(C)C[C@H](NC(=O)[C@H](C)NC(=O)[C@H](CCCNC(=N)N)NC(=O)N(C)C)[C@@H](O)CC(=O)NCCc1ccccc1 ({NMe2-CO}-Arg-Ala-[Sta]-NHPhenethyl)
7 | – | – | – | 78 | CC(C)C[C@H](NC(=O)[C@H](C)NC(=O)[C@H](CCCNC(=N)N)NS(=O)(=O)CCc1ccccc1)[C@@H](O)CC(=O)NCCc1ccccc1
8 | > 100 | 0.043 | > 20 | – | CC(C)C[C@H](NC(=O)[C@H](C)NC(=O)[C@H](CCc1ccccc1)NC(=O)OCc1ccccc1)[C@@H](O)CC(=O)NC1CCCCC1
9 | – | – | – | 43 | CC(C)C[C@H](NC(=O)[C@H](C)NC(=O)[C@H](CCCNC(=N)N)NC(=O)C1CCCCC1)[C@@H](O)CC(=O)NCCc1ccccc1
10 | – | – | – | 65 | CC(C)CCNC(=O)C[C@H](O)[C@H](CC(C)C)NC(=O)[C@H](C)NC(=O)[C@H](CCCNC(=N)N)NC(=O)OCc1ccccc1
11 | – | – | – | 30 | CC(C)C[C@H](NC(=O)[C@H](C)NC(=O)[C@H](CCCNC(=N)N)NC(=O)OCc1ccccc1)[C@@H](O)CC(=O)N(C)Cc1ccccc1
12 | – | – | – | 41 | CC(C)C[C@H](NC(=O)[C@H](C)NC(=O)[C@H](CCCNC(=N)N)NC(=O)NC1CCCC1)[C@@H](O)CC(=O)NCCc1ccccc1
13 | – | – | – | 35 | C=CCOC(=O)N[C@@H](CCCNC(=N)N)C(=O)N[C@@H](C)C(=O)N[C@@H](CC(C)C)[C@@H](O)CC(=O)NCCc1ccccc1 (Alloc-Arg-Ala-[Sta]-NHPhenethyl)
14 | – | – | – | 75 | CC(C)C[C@H](NC(=O)[C@H](C)NC(=O)[C@H](CCCNC(=N)N)NC(=O)OCc1ccccc1)[C@@H](O)CC(=O)NCCCc1ccccc1
15 | – | – | > 20 | – | CC[C@H](C)[C@H](NC(=O)[C@H](C)NC(=O)[C@H](CCCNC(=N)N)NC(=O)OCc1ccccc1)[C@@H](O)CC(=O)NC1CCCCC1
16 | – | – | – | 53 | CC(C)C[C@H](NC(=O)[C@H](C)NC(=O)[C@H](CCCNC(=N)N)NS(C)(=O)=O)[C@@H](O)CC(=O)NCCc1ccccc1 (Ms-Arg-Ala-[Sta]-NHPhenethyl)
17 | > 100 | > 100 | 0.774 | 62 | CC(C)C[C@H](NC(=O)[C@H](C)NC(=O)[C@H](CCCNC(=N)N)NC(=O)c1ccccc1)[C@@H](O)CC(=O)NCCc1ccccc1 (Bz-Arg-Ala-[Sta]-NHPhenethyl)
18 | – | – | – | 63 | CC(C)C[C@H](NC(=O)[C@H](C)NC(=O)[C@H](CCCNC(=N)N)NC(=O)OCc1ccccc1)[C@@H](O)CC(=O)NCC1CCCCC1
19 | – | – | – | 45 | CC(C)C[C@H](NC(=O)[C@H](C)NC(=O)[C@H](CCCNC(=N)N)NC(=O)OCc1ccccc1)[C@@H](O)CC(=O)N1CCc2ccccc2C1
20 | > 100 | > 100 | 0.967 | – | CC(=O)N[C@@H](CCCNC(=N)N)C(=O)N[C@@H](C)C(=O)N[C@@H](CC(C)C)[C@@H](O)CC(=O)NC1CCCCC1
21 | – | – | – | 42 | CC(C)C[C@H](NC(=O)[C@H](C)NC(=O)[C@H](CCCNC(=N)N)NC(=O)OCc1ccccc1)[C@@H](O)CC(=O)NC(C)C (Cbz-Arg-Ala-[Sta]-NHiPr)
22 | – | – | – | 59 | CC(C)C[C@H](NC(=O)[C@H](C)NC(=O)[C@H](CCCNC(=N)N)NC(=O)Cc1ccccc1)[C@@H](O)CC(=O)NCCc1ccccc1 (PhAc-Arg-Ala-[Sta]-NHPhenethyl)
23 | > 100 | > 100 | 0.772 | 66 | CC(C)C[C@H](NC(=O)[C@H](C)NC(=O)[C@H](CCCNC(=N)N)NC(=O)OCc1ccccc1)[C@@H](O)CC(=O)NC1Cc2ccccc2C1
24 | – | – | – | 56 | CCCNC(=O)C[C@H](O)[C@H](CC(C)C)NC(=O)[C@H](C)NC(=O)[C@H](CCCNC(=N)N)NC(=O)OCc1ccccc1 (Cbz-Arg-Ala-[Sta]-NHPr)

Row | IC50 (Beta-secretase 1) [µM] | IC50 (Cathepsin D) [µM] | IC50 (Plasmepsin V) [µM] | inhibition [1] [%] | Compound
25 | – | – | > 20 | – | C[C@H](NC(=O)[C@H](CCCNC(=N)N)NC(=O)OCc1ccccc1)C(=O)N[C@@H](Cc1ccccc1)[C@@H](O)CC(=O)NC1CCCCC1
26 | – | – | – | 68 | CC(C)C[C@H](NC(=O)[C@H](C)NC(=O)[C@H](CCCNC(=N)N)NC(=O)CCc1ccccc1)[C@@H](O)CC(=O)NCCc1ccccc1 (Hydrocinnamoyl-Arg-Ala-[Sta]-NHPhenethyl)
27 | – | – | – | 56 | CC(C)C[C@H](NC(=O)[C@H](C)NC(=O)[C@H](CCCNC(=N)N)NC(=O)OCc1ccccc1)[C@@H](O)CC(=O)NC1CCC1
28 | – | – | – | 53 | CC(C)C[C@H](NC(=O)[C@H](C)NC(=O)[C@H](CCCNC(=N)N)NC(=O)Nc1ccccc1)[C@@H](O)CC(=O)NCCc1ccccc1 ({NHPh-CO}-Arg-Ala-[Sta]-NHPhenethyl)
29 | – | – | > 20 | – | CC(C)[C@H](NC(=O)[C@H](C)NC(=O)[C@H](CCCNC(=N)N)NC(=O)OCc1ccccc1)[C@@H](O)CC(=O)NC1CCCCC1
30 | – | – | – | 42 | CC(=O)N[C@@H](CCCNC(=N)N)C(=O)N[C@@H](C)C(=O)N[C@@H](CC(C)C)[C@@H](O)CC(=O)NCCc1ccccc1 (Ac-Arg-Ala-[Sta]-NHPhenethyl)
31 | – | – | – | 32 | CC(C)C[C@H](NC(=O)[C@H](C)NC(=O)[C@H](CCCNC(=N)N)NC(=O)NCc1ccccc1)[C@@H](O)CC(=O)NCCc1ccccc1 ({NHBn-CO}-Arg-Ala-[Sta]-NHPhenethyl)
32 | – | – | > 20 | – | CC(C)C[C@H](NC(=O)[C@H](C)NC(=O)[C@H](CCCCNC(=N)N)NC(=O)OCc1ccccc1)[C@@H](O)CC(=O)NC1CCCCC1
33 | > 100 | > 100 | > 20 | – | CC(C)C[C@H](NC(=O)[C@H](C)NC(=O)[C@H](CCCCN)NC(=O)OCc1ccccc1)[C@@H](O)CC(=O)NC1CCCCC1
34 | – | – | – | 80 | CC(C)C[C@H](NC(=O)[C@H](C)NC(=O)[C@H](CCCNC(=N)N)NS(=O)(=O)C1CC1)[C@@H](O)CC(=O)NCCc1ccccc1
35 | – | – | – | 51 | CC(C)C[C@H](NC(=O)[C@H](C)NC(=O)[C@H](CCCNC(=N)N)NC(=O)OCc1ccccc1)[C@@H](O)CC(=O)NC1CCCc2ccccc21 (stereo partly specified)
36 | – | – | – | 55 | CC(C)C[C@H](NC(=O)[C@H](C)NC(=O)[C@H](CCCNC(=N)N)NC(=O)OCc1ccccc1)[C@@H](O)CC(=O)NC1CC1
37 | – | – | – | 26 | CCNC(=O)N[C@@H](CCCNC(=N)N)C(=O)N[C@@H](C)C(=O)N[C@@H](CC(C)C)[C@@H](O)CC(=O)NCCc1ccccc1 ({NHEt-CO}-Arg-Ala-[Sta]-NHPhenethyl)
38 | > 100 | > 100 | 0.625 | 89 | CC(C)C[C@H](NC(=O)[C@H](C)NC(=O)[C@H](CCCNC(=N)N)NS(=O)(=O)Cc1ccccc1)[C@@H](O)CC(=O)NCCc1ccccc1
39 | > 100 | 29 | 0.622 | 79 | CC(C)C[C@H](NC(=O)[C@H](C)NC(=O)[C@H](CCCNC(=N)N)NC(=O)OCc1ccccc1)[C@@H](O)CC(=O)NCCc1ccccc1 (Cbz-Arg-Ala-[Sta]-NHPhenethyl)
40 | – | – | – | 32 | CC(C)C[C@H](NC(=O)[C@H](C)NC(=O)[C@H](CCCNC(=N)N)NC(=O)OCc1ccccc1)[C@@H](O)CC(=O)N(C)C (Cbz-Arg-Ala-[Sta]-NMe2)
41 | – | – | – | 47 | CC(C)COC(=O)N[C@@H](CCCNC(=N)N)C(=O)N[C@@H](C)C(=O)N[C@@H](CC(C)C)[C@@H](O)CC(=O)NCCc1ccccc1
42 | – | – | – | 49 | CC(C)CNC(=O)C[C@H](O)[C@H](CC(C)C)NC(=O)[C@H](C)NC(=O)[C@H](CCCNC(=N)N)NC(=O)OCc1ccccc1
43 | – | – | – | 13 | CC(C)C[C@H](NC(=O)[C@H](C)NC(=O)[C@H](CCCNC(=N)N)NC(=O)OCc1ccccc1)[C@@H](O)CC(=O)N1CCC(c2ccccc2)CC1
44 | – | – | – | 27 | CC(C)C[C@H](NC(=O)[C@H](C)NC(=O)[C@H](CCCNC(=N)N)NC(=O)OCc1ccccc1)[C@@H](O)CC(=O)N1CCCCC1 (Cbz-Arg-Ala-[Sta]-Piperidide)
45 | – | – | – | 49 | CC(C)C[C@H](NC(=O)[C@H](C)NC(=O)[C@H](CCCNC(=N)N)NC(=O)C(C)C)[C@@H](O)CC(=O)NCCc1ccccc1 (Isobutyryl-Arg-Ala-[Sta]-NHPhenethyl)
46 | – | – | – | 30 | CC(C)C[C@H](NC(=O)[C@H](C)NC(=O)[C@H](CCCNC(=N)N)NC(=O)OCc1ccccc1)[C@@H](O)CC(=O)N(C)C(C)c1ccccc1 (stereo partly specified)
47 | > 100 | 4.8 | 0.23 | – | CC(C)C[C@H](NC(=O)[C@H](Cc1ccccc1)NC(=O)[C@H](CCCNC(=N)N)NC(=O)OCc1ccccc1)[C@@H](O)CC(=O)NC1CCCCC1

Row | Compound | IC50 (Beta-secretase 1) [µM] | IC50 (Cathepsin D) [µM] | IC50 (Plasmepsin V) [µM] | inhibition [1] [%]
48 | CC(=O)N[C@@H](CCCNC(=N)N)C(=O)N[C@@H](C)C(=O)N[C@@H](CC(C)C)[C@@H](O)CC(=O)NCCCC(N)=O (Ac-RA[Sta][GABA]-NH2) | > 100 | > 100 | 0.865 | –
49 | CC(=O)N[C@@H](CCCNC(=N)N)C(=O)N[C@@H](C)C(=O)N[C@@H](CC(C)C)[C@@H](O)CC(=O)N[C@@H](CCC(N)=O)C(N)=O (Ac-RA[Sta]Q-NH2) | > 100 | > 100 | 0.556 | –
50 | CC(=O)N[C@@H](CCCNC(=N)N)C(=O)N[C@@H](C)C(=O)N[C@@H](CC(C)C)[C@@H](O)CC(=O)N[C@@H](C)C(N)=O (Ac-RA[Sta]A-NH2) | > 100 | > 100 | 0.613 | –
